Reference: publication PMC6982022 (International Journal of Molecular Sciences, 2019)
Read-outs that look alike come from different tables or passages of the source.

Columns and labels:
rodent model of diabetes = tested on: rodent model of diabetes; parameters: method as in PMID 20000679; details: ref 36; cited from earlier work
GBA2 = details: ref 15; cited from earlier work
C57BL/6 mice = details: cited from earlier work
[1] = parameters: method as in PMID 17624027; details: male and female CD rats, oral [3H]-NB-DNJ 160 mg/kg, cited from earlier work
male CD rats = experiment: Rat mating trial (fertility); type: in vivo; details: 15 mg/kg/day oral, 35 days; data not presented
Protocol: Eighteen adult male CD rats were divided into three groups of six rats each. One group of six CD rats was treated with vehicle (distilled water containing 0.9% benzyl alcohol) via oral gavage (5 mL/kg/day), and the second group (6 rats) was treated with NB-DGJ (in distilled water containing 0.9% benzyl alcohol) via oral gavage at 150 mg/kg/day (in approximately 5 mL/kg of water) daily for 35 consecutive days. The third group (6 rats) was treated with 15 mg/kg NB-DNJ in distilled water containing 0.9% benzyl alcohol) via oral gavage (in approximately 5 mL/kg of water) daily for 35 consecutive days (Figure S5).
Rats were weighed on day 0 (first day of dosing) and weekly thereafter. Dosages were adjusted based on the most recent body weight. Males were cohabited with untreated females (one male per two females) weekly at weeks 1 through 9 [38, 39]. Females were necropsied seven days after separation from males to determine the numbers of implantation sites. Individual male rats were bled from the tail vein at weeks 0, 1, 4, and 7 and serum was harvested by centrifugation. At week 11, the male rats were weighed, anesthetized, and exsanguinated. Sera were analyzed for inhibin B by ELISA (enzyme-linked immunosorbent assay), and rat follicle stimulating hormone (rFSH) and testosterone by radioimmunoassay. Testes, epididymides, ventral prostates, and seminal vesicles were excised and weighed. The left testis was homogenized, and spermatid head counts obtained.
Statistical analysis using the Student’s t-test was performed on body weights, paired testes weights, ventral prostrate weights, seminal vesicle weights, paired epididymal weights, spermatid head counts, percent motile and normal epididymal sperm. We used analysis of variance (ANOVA) for serum inhibin B, rFSH, and testosterone, since these measurements were repeated throughout the study period. The effect of NB-DNJ at 15 mg/kg/day dose in the rat model was studied following the same protocol as that for NB-DGJ.

C57BL6J mice [2] = experiment: Epididymal sperm acrosome morphology (FITC-PSA staining) after 35 days oral dosing; type: in vivo, mouse; details: 15, 25 and 50 mg/kg oral daily
Protocol: (§1) Groups of six mice, each, were used for three different doses of NB-DNJ or NB-DGJ formulated in milliQ water at 50 mg/kg, 25 mg/kg and 15 mg/kg, respectively. Control groups were given an equivalent volume of water. Animals were given compound or control once daily for 35 consecutive days via oral gavage using animal feeding needles (Biomedical Needles, Popper, NY, USA). Body weight was noted every week for all treatment groups. Mice were euthanized at the end of a 35 days dosing regimen using CO2 asphyxia followed by cervical dislocation. Testes were harvested, weighed and stored in Bouin’s fixative for 48 h, then sliced into two halves, and stored in fresh Bouin’s for another 24 h. The tissue slices were then rinsed in 70% ethanol and processed and stained for histology using a standard protocol for Hematoxylin and eosin staining. Spermatids with elongated and abnormally shaped heads were counted per 20 fields and average number calculated for 6 mice/group.
For sperm retrieval, epididymis was removed from the animal and placed in Petri dish. One mL of capacitation buffer (Capacitation buffer consisted of 110 mM NaCl, 2.68 mM KCl, 0.36 mM NaH2PO4, 25 mM NaHCO3, 0.49 mM MgCl2, 2.40 mM CaCl2, 25 mM HEPES, 5.50 mM Glucose, 1 mM Pyruvic acid, pH 7.4; Tash and Bracho, 1998) at room temperature was added to the dish. Using forceps, the caput of the epididymis was held in place and the cauda sliced repeatedly with a razor blade. The spermatozoa were allowed to disperse for 15 min with gentle swirling intermittently. A 100 µL aliquot of the sperm suspension was dropped onto a standard glass microscope slide (Fisherbrand superfrost microscope slides 25 × 75 × 1.0 mm)) and smeared with side of pipette tip. The slides were air dried flat for 1 h at room temperature. The sperm smear was fixed in methanol for 2 min. The sperm smear was than stained using FITC-PSA (Fluorescein isothiocyanate Pisum Sativum Agglutinin; Vector Laboratories, Burlingame, CA) was diluted 1:7000 in PBS containing 1:10,000 DAPI dihydrochloride, FluoroPure™ grade, Invitrogen) (≥98% pure) to make the stock solution. To each slide, 100 µL of FITC-PSA was added and spread out with edge of pipette tip to cover the dried sperm smear. The slides were incubated at 37 °C for 10 min, and then washed with 5 changes of PBS for 5 min each. The slides were air-dried and mounted with 20 µL Vectashield mounting medium for fluorescence (Vector Laboratories, Burlingame, CA, USA) and observed. Slides were viewed on a Nikon IX-81 microscope under a 40× objective using FITC and DAPI filter to visualize acrosome morphology. The phase contrast images were also collected at the same magnification to compare morphological details.

C57BL6J mice [3] = experiment: Testis histology (H&E) after 35 days oral dosing; type: in vivo, mouse; details: 15, 25 or 50 mg/kg, oral daily
Protocol: as §1

human subjects = tested on: human subjects; parameters: method as in PMID 17067996, PMID 10801168, PMID 7905523; details: ref 25, 26, 27; cited from earlier work
[4] = C57BL/6 mice, daily oral 15 mg/kg

## OC[C@@H]1[C@@H](O)[C@H](O)[C@@H](O)CN1CCCCCOCC12CC3CC(CC(C3)C1)C2
Rodent model of diabetes
  Control of hyperglycemia (in words): potently control hyperglycemia

## CCCCN1C[C@H](O)[C@@H](O)[C@H](O)[C@H]1CO [NB-DNJ, N-butyldeoxynojirimycin]
C57BL/6 mice; C57BL/6 mice, 15 mg/kg
  Time to return of fertility after cessation: three weeks
C57BL/6 mice; [4]
  Effect on fertility (in words): Reversible inhibition of fertility
  Time of daily dosing until inhibition of fertility was observed: three weeks
C57BL/6 mice; ref 24
  Strain/species specificity of male contraceptive activity (in words): only effective as a male contraceptive in C57BL/6 and C57BL/6-related mice
[1]
  Cmax: 13,800 ng/mL
  tmax: 0.5 h
  t½: 4.5 h
[1]; read-out: Cmax in molar units
  Cmax: ~63 µM
Male CD rats
  Effect on fertility in mating trial (in words): did not show effect on fertility by week 6
C57BL6J mice [2]
  Sperm acrosome morphology (in words): abnormal acrosome in all spermatozoa
C57BL6J mice [3]
  Testis histology, spermatid heads (in words): rounded, abnormally shaped spermatid heads
Human subjects
  Effect in human subjects (sperm counts, semen parameters): no effect
